Laboratory results as given in patent US20240116896A1 (ATAI Life Sciences AG, priority 2022, published 2024).

How the values were obtained:
Type in all cases: cell-based
5-HT2A [1] = molecular target: T1, 5-HT2A (Homo sapiens, UniProt P28223); test: PathHunter b-arrestin assay, agonist mode, 5-HT2A
Excerpt: GPCR Arrestin Assay Methods
Arrestin Pathway (Performed by DiscoverX Eurofins)
The PathHunter® β-Arrestin assay monitors the activation of a GPCR in a homogenous, non-imaging assay format using a technology developed by DiscoverX called Enzyme Fragment Complementation (EFC) with β-galactosidase (β-Gal) as the functional reporter. […] EA is fused to β-Arrestin and PK is fused to the GPCR of interest.
When the GPCR is activated and β-Arrestin is recruited to the receptor, ED and EA complementation occurs, restoring β-Gal activity which is measured using chemiluminescent PathHunter® Detection Reagents.
PathHunter cell lines (DiscoveRx Eurofins) were expanded from freezer stocks according to standard procedures. Cells were seeded in a total volume of 20 μL into white walled, 384-well microplates and incubated at 37° C. for the appropriate time prior to testing. […]
b-Arrestin assay signal was generated through a single addition of 12.5 or 15 μL (50% v/v) of PathHunter Detection reagent cocktail, followed by a one-hour incubation at room temperature. Microplates were read following signal generation with a PerkinElmer Envision™ instrument for chemiluminescent signal detection.
Compound activity was analyzed using CBIS data analysis suite (ChemInnovation, CA). For agonist mode assays, percentage activity was calculated using the following formula: […]

5-HT2C = molecular target: T2, 5-HT2C (Homo sapiens, UniProt P28335); test: Calcium mobilization (Ca++ flux) assay, agonist mode, 5-HT2C
T2 sequence (P28335 33-458): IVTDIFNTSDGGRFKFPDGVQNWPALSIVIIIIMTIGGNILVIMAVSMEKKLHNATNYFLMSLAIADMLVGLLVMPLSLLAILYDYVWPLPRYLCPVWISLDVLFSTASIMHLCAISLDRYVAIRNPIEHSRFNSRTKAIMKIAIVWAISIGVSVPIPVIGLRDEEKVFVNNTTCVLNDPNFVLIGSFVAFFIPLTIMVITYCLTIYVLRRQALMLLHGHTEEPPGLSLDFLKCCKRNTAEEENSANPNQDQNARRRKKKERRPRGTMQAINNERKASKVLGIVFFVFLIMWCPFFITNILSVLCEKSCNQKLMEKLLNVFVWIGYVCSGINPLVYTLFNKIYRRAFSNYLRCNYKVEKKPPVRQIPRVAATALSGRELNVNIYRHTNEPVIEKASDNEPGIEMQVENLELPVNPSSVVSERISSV
Excerpt: (§1) Calcium Mobilization Assay Method (Performed by DiscoveRx Eurofins)
(§2) The Calcium No-Wash^PLUS assay monitors the activation of a GPCR via Gq secondary messenger signaling in a live cell, non-imaging assay format. Calcium mobilization in PathHunter® cell lines or other cell lines stably expressing Gq-coupled GPCRs is monitored using a calcium-sensitive dye that is loaded into cells. GPCR activation by a compound results in the release of calcium from intracellular stores and an increase in dye fluorescence that is measured in real-time.
Cell lines expressing the GPCR of interest were expanded from freezer stocks according to standard procedures. Cells were seeded in a total volume of 20 μL into black-walled, clear-bottom, Poly-D-lysine coated 384-well microplates and incubated at 37° C. for the appropriate time prior to testing. […]
(§3) Intermediate dilution of sample stocks was performed to generate 4× sample in assay buffer. Compound agonist activity was measured on a FLIPR Tetra (MDS). Calcium mobilization was monitored for 2 minutes and 10 μL 4× sample in HBSS/20 mM Hepes was added to the cells 5 seconds into the assay.
Compound activity data was analyzed using CBIS data analysis suite (ChemInnovation, CA). For agonist mode assays, percentage activity is calculated using the following formula: […]

5-HT2B [2] = molecular target: T3, 5-HT2B (Homo sapiens, UniProt P41595); test: Calcium mobilization (Ca++ flux) assay, agonist mode, 5-HT2B; conditions: for 5-HT2B, Ca++ flux % activation @30 uM: relative to MAX serotonin control; for EC50: agonist mode
Excerpt: as §1, §2
(§4) Cell lines expressing the GPCR of interest were expanded from freezer stocks according to standard procedures. Cells were seeded in a total volume of 20 μL into black-walled, clear-bottom, Poly-D-lysine coated 384-well microplates and incubated at 37° C. for the appropriate time prior to testing.
(§5) Assays were performed in 1× Dye Loading Buffer consisting of 1× Dye, 1× Additive A and 2.5 mM Probenecid in HBSS/20 mM Hepes. Probenicid was prepared fresh. Cells were loaded with dye prior to testing. Media was aspirated from cells and replaced with 20 μL Dye Loading Buffer. Cells were incubated for 30-60 minutes at 37° C.
(§6) For agonist determination, cells were incubated with sample to induce response. After dye loading, cells were removed from the incubator and 10 μL HBSS/20 mM Hepes was added. 3× vehicle was included in the buffer when performing agonist dose curves to define the EC80 for subsequent antagonist assays. Cells were incubated for 30 minutes at room temperature in the dark to equilibrate plate temperature.
as §3
(§7) Compound activity data was analyzed using CBIS data analysis suite (ChemInnovation, CA). For agonist mode assays, percentage activity is calculated using the following formula:
(§8) % Activity=100%×(mean RFU of test sample−mean RFU of vehicle control)/(mean MAX RFU control ligand−mean RFU of vehicle control).
(§9) In these studies, the MAX RFU was generated by using 0.1 mM serotonin for the calcium mobilization assay.

5-HT2A [3] = molecular target: T1, 5-HT2A; test: Calcium mobilization (Ca++ flux) assay, agonist mode, 5-HT2A; conditions: for 5-HT2A, Ca++ flux % activation @30 uM: relative to MAX serotonin control
Excerpt: as §1, §2, §4, §5, §6, §3, §7, §8, §9

5-HT2A [4] = molecular target: T1, 5-HT2A; test: IPOne (IP1 HTRF) assay, CHO-K1 cells expressing human 5-HT2A; set-up: expressed in transfected cells; host or cells: CHO-K1; conditions: for activation at 0.3 µM / activation at 30 µM: CHO-K1, percentage of reference agonist α-Me-5-HT at its EC100
Method: (§10) IPOne assays were performed using stably-transfected cell lines (CHO-K1) expressing human 5-HT2A or 5-HT2B receptors. Upon activation of these receptors, Gq-mediated myo-Inositol 1 phosphate (IP1) production is detected by a Homogeneous Time-Resolved Fluorescence (HTRF) competitive immunoassay, whereby an IP1 analog coupled to a fluorophore (acceptor) competes with endogenous IP1 for binding to a labeled anti-IP1 antibody (donor). The resulting signal is inversely proportional to the concentration of IP1 in the sample. Cells were incubated with an IP1 inhibitor (to prevent degradation and allow detection) and either reference compound or test compound. α-Me-5-HT was used as the assay reference agonist. Activation of 5-HT2A or 5-HT2B receptors was measured via accumulation of IP1 detected by HTRF. Agonist activity of test compounds was expressed as a percentage of the activity of the reference agonist at its EC100 concentration.

5-HT2B [5] = molecular target: T3, 5-HT2B; test: IPOne (IP1 HTRF) assay, CHO-K1 cells expressing human 5-HT2B; set-up: expressed in transfected cells; host or cells: CHO-K1; conditions: for activation at 0.3 µM / activation at 30 µM: CHO-K1, percentage of reference agonist α-Me-5-HT at its EC100
Method: as §10

T3 sequence (P41595 whole entry): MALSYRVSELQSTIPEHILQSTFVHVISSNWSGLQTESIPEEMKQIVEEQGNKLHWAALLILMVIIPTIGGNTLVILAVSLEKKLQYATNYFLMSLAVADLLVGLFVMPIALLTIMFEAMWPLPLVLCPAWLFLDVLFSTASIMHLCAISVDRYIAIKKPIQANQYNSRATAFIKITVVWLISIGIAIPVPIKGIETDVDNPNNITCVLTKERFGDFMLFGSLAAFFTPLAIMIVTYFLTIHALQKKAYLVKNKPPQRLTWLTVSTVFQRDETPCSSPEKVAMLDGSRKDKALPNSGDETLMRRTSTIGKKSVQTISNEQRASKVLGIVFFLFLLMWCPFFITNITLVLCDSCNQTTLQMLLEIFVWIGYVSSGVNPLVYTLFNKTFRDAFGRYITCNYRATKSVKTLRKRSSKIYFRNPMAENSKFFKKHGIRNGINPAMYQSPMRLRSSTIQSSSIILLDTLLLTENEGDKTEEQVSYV
T1 sequence (P28223 whole entry): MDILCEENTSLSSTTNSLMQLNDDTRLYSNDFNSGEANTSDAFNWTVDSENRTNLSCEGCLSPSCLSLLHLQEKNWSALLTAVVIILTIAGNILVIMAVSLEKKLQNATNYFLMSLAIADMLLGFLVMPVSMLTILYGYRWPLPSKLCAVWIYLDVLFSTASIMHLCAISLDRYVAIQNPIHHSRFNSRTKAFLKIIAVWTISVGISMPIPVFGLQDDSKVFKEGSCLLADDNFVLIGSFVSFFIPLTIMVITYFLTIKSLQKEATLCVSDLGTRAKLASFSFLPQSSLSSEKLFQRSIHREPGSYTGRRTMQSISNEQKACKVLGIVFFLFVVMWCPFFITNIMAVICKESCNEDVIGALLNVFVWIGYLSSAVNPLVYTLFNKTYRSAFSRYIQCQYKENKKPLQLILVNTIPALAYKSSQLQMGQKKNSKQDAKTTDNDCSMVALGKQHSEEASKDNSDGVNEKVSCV

| Compound | EC50 (5-HT2A [3]) | 5-HT2A, Ca++ flux % activation @30 uM (5-HT2A [3]) | activation at 0.3 µM (5-HT2A [4]) | activation at 30 µM (5-HT2A [4]) | activation at 0.3 µM (5-HT2B [5]) | activation at 30 µM (5-HT2B [5]) | also measured |
| --- | --- | --- | --- | --- | --- | --- | --- |
| COC(=O)C1CCCN1CCc1c[nH]c2ccccc12 (stereo not shown) [Compound 1, methyl (2-(1H-indol-3-yl)ethyl)prolinate] | 987 nM | 78.24% |  |  |  |  | EC50 (5-HT2A [1]): 16100 nM; EC50 (5-HT2C): 4160 nM; 5-HT2B, Ca++ flux % activation @30 uM (5-HT2B [2]): 11.15%; EC50 (5-HT2B [2]): > 30000 nM |
| O=C(O)C1CCCN1CCc1c[nH]c2ccccc12 (stereo not shown) [Compound 2, (2-(1H-indol-3-yl)ethyl)proline] | > 30000 nM | 2.41% |  |  |  |  |  |
| OCC1CCCN1CCc1c[nH]c2ccccc12 (stereo not shown) [Compound 3, (1-(2-(1H-indol-3-yl)ethyl)pyrrolidin-2-yl)methanol] | 103 nM | 94.73% | 47.9% | 97.5% | 25.9% | 93.9% | EC50 (5-HT2A [1]): 1150 nM; EC50 (5-HT2C): 498 nM; 5-HT2B, Ca++ flux % activation @30 uM (5-HT2B [2]): 23.51%; EC50 (5-HT2B [2]): > 30000 nM |
| COC(=O)CN(C)CCc1c[nH]c2ccccc12 [Compound 4, methyl N-(2-(1H-indol-3-yl)ethyl)-N-methylglycinate] | 302 nM | 36.92% |  |  |  |  |  |
| CN(CCc1c[nH]c2ccccc12)CC(=O)O [Compound 5, N-(2-(1H-indol-3-yl)ethyl)-N-methylglycine] | > 30000 nM | 24.51% |  |  |  |  |  |
| CN(CCO)CCc1c[nH]c2ccccc12 [Compound 6, 2-((2-(1H-indol-3-yl)ethyl)(methyl)amino)ethan-1-ol] | 101 nM | 42.83% |  |  |  |  |  |
| CC(C)(O)[C@@H]1CCCN1CCc1c[nH]c2ccccc12 [Compound 74, 2-[(2S)-1-[2-(1H-indol-3-yl)ethyl]pyrrolidin-2-yl] propan-2-ol] |  |  | 80.2% | 102% | 63% | 100% | EC50 (5-HT2A [4]; CHO-K1, human 5-HT2A): 247 nM; EC50 (5-HT2B [5]; CHO-K1, human 5-HT2B): 526 nM |
| C[C@@H](O)[C@@H]1CCCN1CCc1c[nH]c2ccccc12 [Compound 75] |  |  | 23.4% | 87.3% | 5.88% | 80.2% |  |
| CC[C@@H](O)[C@@H]1CCCN1CCc1c[nH]c2ccccc12 [Compound 77, (R)-1-((S)-1-(2-(1H-indol-3-yl)ethyl)pyrrolidin-2-yl)propan-1-ol] |  |  | 23.9% | 90.6% | 18.2% | 86.7% |  |
| CC[C@H](O)[C@@H]1CCCN1CCc1c[nH]c2ccccc12 [Compound 78, (S)-1-((S)-1-(2-(1H-indol-3-yl)ethyl)pyrrolidin-2-yl)propan-1-ol] |  |  | 1.39% | 64.3% | 5.16% | 82.2% |  |
| COC(=O)[C@]1(C)CCCN1CCc1c[nH]c2ccccc12 [Compound 92, methyl (S)-1-(2-(1H-indol-3-yl)ethyl)-2-methylpyrrolidine-2-carboxylate] |  |  | -16.3% | -6.28% | -2.23% | 15.4% |  |
| C[C@@]1(CO)CCCN1CCc1c[nH]c2ccccc12 [Compound 93, (S)-(1-(2-(1H-indol-3-yl)ethyl)-2-methylpyrrolidin-2-yl)methanol] |  |  | -11.3% | 1.82% | -0.54% | 25.6% |  |
| COC(=O)[C@@H]1CCCN1CCc1c[nH]c2ncccc12 [Compound 94, methyl (2-(1H-pyrrolo[2,3-b]pyridin-3-yl)ethyl)-L-prolinate] |  |  | 0.14% | 54.3% | -0.22% | 2.48% |  |
| OC[C@@H]1CCCN1CCc1c[nH]c2ncccc12 [Compound 95, (S)-(1-(2-(1H-pyrrolo[2,3-b]pyridin-3-yl)ethyl)pyrrolidin-2-yl)methanol] |  |  | 0.81% | 84.3% | 1.09% | 9.66% |  |
